Measured values published in patent US9957569B2, “Recurrent gene fusions in prostate cancer” (THE REGENTS OF THE UNIVERSITY OF MICHIGAN, priority 2005, dated 2018).

Key:
ERG [1] = experiment: In vitro androgen responsiveness: ERG expression by QPCR after R1881; type: cell-based, human; details: 1 nM R1881, 24 h; for increase in expression of ERG compared to untreated controls: QPCR ERG/GAPDH; for expression of ERG after R1881 treatment compared to untreated controls: QPCR
Experimental: Quantitative PCR (QPCR) was performed using SYBR Green dye on an Applied Biosystems 7300 Real Time PCR system essentially as described (Chinnaiyan et al., Cancer Res 65, 3328 (2005); Rubin et al., Cancer Res 64, 3814 (2004)). Briefly, 1-5 μg of total RNA was reverse transcribed into cDNA using SuperScript III (Invitrogen) in the presence of random primers or random primers and oligo dT primers. All reactions were performed with SYBR Green Master Mix (Applied Biosystems) and 25 ng of both the forward and reverse primer using the manufacturer's recommended thermocycling conditions. All reactions were subjected to melt curve analysis and products from selected experiments were resolved by electrophoreses on 1.5% agarose gels. For each experiment, threshold levels were set during the exponential phase of the QPCR reaction using Sequence Detection Software version 1.2.2 (Applied Biosystems). The amount of each target gene relative to the housekeeping gene glyceraldehyde-3-phosphate dehydrogenase (GAPDH) for each sample was determined using the comparative threshold cycle (Ct) method (Applied Biosystems User Bulletin #2), with the cDNA sample serving as the calibrator for each experiment described in the figure legend. All oligonucleotide primers were synthesized by Integrated DNA Technologies. GAPDH primers were as described (Vandesompele et al., Genome Biol 3, RESEARCH0034 (2002)) and all other primers are listed (Table 4).
RWPE, LNCaP, VCap DuCaP, PC3 and PC3 cells stably transfected with the human androgen receptor (PC3+AR) (3) were treated for 24 h with 1% ethanol control or 1 nM of the synthetic androgen R1881. Total RNA was isolated and subjected to reverse transcription and QPCR as described above with ERG exon 5-6_f and _r primers. The relative amount of ERG/GAPDH for each sample was calibrated to the RWPE control sample.

[2] = test system: VCaP and LNCaP prostate cancer cell lines; experiment: QPCR of PSA and ETV1 in VCaP and LNCaP cells treated with R1881; type: cell-based, human
[3] = test system: LNCaP prostate cancer cell line; experiment: Androgen stimulation time course of LNCaP cells, Q-PCR of FLJ35294, CANT1 and DDX5 transcripts; type: cell-based, human
Experimental: Q-PCR was carried out according to standard protocols.
Samples were normalized by the mRNA level of the housekeeping gene GAPDH. Androgen stimulation reactions were performed in triplicate, and all other reactions were performed in duplicate. RNA Ligase Mediated Rapid Amplification of cDNA Ends (RLM-RACE)

[4] = test system: LNCaP prostate cancer cell line; experiment: Androgen stimulation of LNCaP cells, qPCR of endogenous 5′ fusion partner genes; type: cell-based, human; details: 1 nM R1881, 24 h
Experimental: For androgen stimulation experiments, LNCaP cells were grown in charcoal-stripped serum containing media for 24 hours before treatment for 24 hours with 1% ethanol or 1 nM of methyltrienolone (R1881, NEN Life Science Products, Boston, Mass.) dissolved in ethanol.
Quantitative PCR (QPCR) was performed using Power SYBR Green Mastermix (Applied Biosystems, Foster City, Calif.) on an Applied Biosystems 7300 Real Time PCR system as described (Tomlins et al., Cancer Res 66, 3396-400 (2006); Tomlins et al., Recurrent fusion of TMPRSS2 and ETS transcription factor genes in prostate cancer. Science 310, 644-8 (2005)). HMBS and GAPDH5, and PSA6 primers were as described. Androgen stimulation reactions were performed in quadruplicate, all other reactions were performed in duplicate.

ERG [5] = experiment: Androgen regulation of Erg expression in LNCap and VCaP cells; type: cell-based, human; details: VCaP (TMPRSS2-ERG+), varying amounts of R1881, 48 hrs
Experimental: This Example describes the androgen regulation of Erg expression. LNCap (TMPRSS2-ERG-) and VCaP (TMPRSS2-ERG+) cell lines were used. The cells were contacted with varying amounts of R1881 for 48 hrs. Expression of Erg, PSA (+control) and beta-tubulin (−control) were assayed.

androgen receptor (AR) = androgen receptor (AR) (Homo sapiens, UniProt P10275, T878A); details: LNCaP
Sequence of androgen receptor (AR) (P10275 whole entry T878A): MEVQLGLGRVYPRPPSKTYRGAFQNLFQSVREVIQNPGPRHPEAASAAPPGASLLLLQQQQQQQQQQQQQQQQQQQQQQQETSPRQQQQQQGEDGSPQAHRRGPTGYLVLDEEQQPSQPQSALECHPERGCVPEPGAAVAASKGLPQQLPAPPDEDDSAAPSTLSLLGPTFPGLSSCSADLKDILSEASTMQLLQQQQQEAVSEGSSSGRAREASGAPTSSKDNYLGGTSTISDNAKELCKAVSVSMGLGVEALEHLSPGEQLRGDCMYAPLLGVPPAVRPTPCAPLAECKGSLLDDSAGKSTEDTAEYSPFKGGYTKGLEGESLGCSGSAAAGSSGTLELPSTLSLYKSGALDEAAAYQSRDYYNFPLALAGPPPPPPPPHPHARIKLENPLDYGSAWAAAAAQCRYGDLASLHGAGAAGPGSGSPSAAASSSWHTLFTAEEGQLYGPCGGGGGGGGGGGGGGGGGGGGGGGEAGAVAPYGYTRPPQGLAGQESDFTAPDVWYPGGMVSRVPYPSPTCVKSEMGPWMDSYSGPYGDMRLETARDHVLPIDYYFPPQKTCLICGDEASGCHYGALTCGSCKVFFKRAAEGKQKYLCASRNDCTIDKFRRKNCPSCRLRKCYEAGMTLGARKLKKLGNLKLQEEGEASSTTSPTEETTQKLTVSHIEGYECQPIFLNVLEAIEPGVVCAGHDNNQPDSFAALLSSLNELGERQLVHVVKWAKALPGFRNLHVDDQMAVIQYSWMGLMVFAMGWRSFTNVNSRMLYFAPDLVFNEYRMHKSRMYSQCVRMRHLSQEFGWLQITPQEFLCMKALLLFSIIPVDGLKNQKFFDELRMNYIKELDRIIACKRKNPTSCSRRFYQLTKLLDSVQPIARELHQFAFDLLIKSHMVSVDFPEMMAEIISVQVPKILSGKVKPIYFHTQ
Experimental: LNCaP, an androgen sensitive prostate cancer cell line, was maintained in RPMI with 10% FBS. For androgen stimulation experiments, cells were placed for two days in phenol red-free RPMI, supplemented with 5% of charcoal-treated FCS before being treated with 1% ethanol or 10 nM R1881 for the following time points 0, 3, 12, 24, and 48 hours. Cells were treated for 16 hours with androgen and crosslinked for chromatin immunoprecipitation (ChIP) analysis.
The input whole-cell extract DNA and the ChIP-enriched DNA were amplified by ligation-mediated PCR, and subjected to qPCR assessment of target promoters. ChIP enrichment was evaluated as a percentage of input DNA.

C[C@]1(O)CC[C@H]2[C@@H]3CCC4=CC(=O)CCC4=C3C=C[C@@]21C [R1881, methyltrienolone]
increase in expression of ERG compared to untreated controls (ERG [1]; DuCaP cells): 2.57 fold | expression of ERG after R1881 treatment compared to untreated controls (ERG [1]; LnCaP cells): 0.86 fold | expression of ERG after R1881 treatment compared to untreated controls (ERG [1]; PC3 cells expressing the androgen receptor): 0.73 fold | expression of ERG after R1881 treatment compared to untreated controls (ERG [1]; PC3 cells): 1.28 fold | expression of ERG after R1881 treatment compared to untreated controls (ERG [1]; RWPE cells): 1.37 fold | increase in expression of ERG compared to untreated controls (ERG [1]; VCaP cells): 5.02 fold | ETV1 expression by QPCR ([2]; LNCaP cells, 1 nM R1881, 48 hours): induction | ETV1 expression ([2]; androgen-responsive VCaP cell line): does not induce | PSA expression by QPCR (normalized to GAPDH) ([2]; both VCaP and LNCaP cells, 1 nM R1881, 48 hours): induction | expression of DDX5 on R1881 stimulation ([3]; 10 nM R1881, Q-PCR): not affected | induction of expression of endogenous CANT1 ([3]; 10 nM R1881, at 24 hours, Q-PCR, P=0.0014): 3.8 fold | induction of expression of endogenous FL35294 ([3]; 10 nM R1881, at 48 hours, Q-PCR, P=0.0006): 11.6 fold | decrease in expression of C15ORF21 ([4]; P=0.0012): 1.9 fold | change in expression of HNRPA2B1 (not significantly changed) ([4]; P=0.29): 1.17 fold | increase in endogenous expression of HERV-K_22q11.23 ([4]; P=2.4E-4): 7.8 fold | increase in endogenous expression of SLC45A3 ([4]; P=6.5E-4): 21.6 fold | increase in endogenous expression of TMPRSS2 ([4]; P=9.95E-7): 14.8 fold | ERG expression, androgen dependence (ERG [5]): androgen dependent | AR recruitment to the promoter region of DDX5 (ChIP) (androgen receptor (AR); 16 hours after R1881): not recruited | AR occupancy of the promoter region of CANT1 (ChIP enrichment) (androgen receptor (AR); 16 hours after R1881, P=0.0014): 40 fold | AR occupancy of the promoter region of FL35294 (ChIP enrichment) (androgen receptor (AR); 16 hours after R1881, P=0.005): 9 fold
